Target: T1, meso-TIM (Saccharomyces cerevisiae, UniProt P00942)
T1 construct: gene TPI1; N-terminal His6 tag, pET28b, E. coli BL21(DE3); dimer; PDB 1NEY is the simulation model
T1 sequence (P00942 2-248): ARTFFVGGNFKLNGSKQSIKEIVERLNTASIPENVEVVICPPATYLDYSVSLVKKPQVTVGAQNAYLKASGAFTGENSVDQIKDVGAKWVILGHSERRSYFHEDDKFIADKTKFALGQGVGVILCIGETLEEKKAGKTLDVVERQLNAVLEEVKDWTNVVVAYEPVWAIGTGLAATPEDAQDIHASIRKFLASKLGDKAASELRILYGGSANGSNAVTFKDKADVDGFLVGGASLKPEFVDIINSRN
Test: stopped-flow, GAPD-coupled assay, […] nm
Format: biochemical
Conditions: 50 mM HEPES pH 7.4, 150 mM NaCl, 10 mM MgCl2, 2.5 mM (NH4)2SO4; two temperatures

`O=C(CO)COP(=O)(O)O` [dihydroxyacetone phosphate] was tested, and the Km was “substrate binding kinetics were determined at two temperatures”.
